# Assay results reported in US20250177566A1, “USE OF CHEMICAL EPIGENETIC MODIFIERS TO MODULATE GENE EXPRESSION” (The University of North Carolina at Chapel Hill, priority 2022, published 2025).
# Read-outs that look alike come from different tables or passages of the source.
# Tests used:
# [1] = test system: CXCR4; assay: CXCR4 mRNA activation in HCT116 stably expressing dCas9 and MS2-FKBPx2 (WT-FKBP), qRT-PCR; type: cell-based, human; details: FIG. 6, WT FKBP system, 48 hrs
# [2] = test system: CXCR4; assay: CXCR4 mRNA activation in HCT116 stably expressing dCas9 and MS2-FKBP*x2, qRT-PCR; type: cell-based, human
# Procedure, shortened: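 HCT116 cells stably expressing dCas9 and MS2-FKBP*x2 with CXCR4 gRNA were treated with CEMs (screen at 5 nM; 1–50 nM range). CXCR4 mRNA measured by one-step qRT-PCR after 48 h, or at 12–96 h in time course. Reversibility tested by washout after 24 h, optionally with 20 μM AP1867.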
# [3] = test system: TRE3G-GFP reporter gene; assay: TRE3G-GFP reporter gene activation in HCT116, dCas9 + MS2-FKBP*x2 (F36V) system, flow cytometry; type: cell-based, human; set-up: fold change, GFP: reference not given here; details: for fold change, GFP: FIG. 5C, NT gRNA, 48 hrs
# [4] = test system: TRE3G-GFP reporter gene; details: WT FKBP (MS2-FKBPx2), 48 hrs
# Experimental: HCT116 cells were transfected with TRE3G-GFP, dCas9, MS2-FKPB*x2, and TRE3G gRNA or NT gRNA. After 48 hrs of 10 nM SLF*-CEMa treatment, flow cytometry was performed and mean fluorescent value was collected. […] TRE3G-GFP, dCas9, MS2-FKBP*2, TRE3G gRNA or NT gRNA were transfected into HCT116 cells. The media was changed to media with 5 nM CEM207 together with 0 nM, 50 nM, 500 nM or 5000 nM of AP1867, respectively. After 48 hrs chemical exposure, flow cytometry was performed and the mean fluorescent value was measured in each group of cells. […] FIGS. 5D and 5E are dose curves of CEMa molecules activating the GFP reporter gene in HCT116 cells using WT FKBP and dCas9 as DNA binding module. HCT116 cells were transfected with dCas9, MS2-FKBPx2, TRE3G-GFP constructs, along with TRE3G gRNA or NT gRNA. Cells were treated with different concentrations of CEMa molecules for 48 hrs before flow cytometry was conducted. […] Error bars represent the standard deviation.
# To better understand the activity of SLF*-CEMa in the WT FKBP-based GFP reporter assay, a similar dose-response assay was conducted in HCT116 cells transfected with dCas9 and MS2-FKBPx2 (FIGS. 1D and 1E).
# Flow cytometry. All flow cytometry experiments were performed with Attune Nxt as previously described. […] Significance was determined by Student's t-test.
smiles,measurement,setting,value
"COc1ccc2c(c1)C(c1ccc(Cl)cc1)=N[C@@H](CC(=O)NCc1cn(CCOCCOCCOCCNC(=O)CCSCCC[C@@H]3/C=C(\C)C[C@H](C)C[C@H](OC)[C@H]4O[C@@](O)(C(=O)C(=O)N5CCCC[C@H]5C(=O)O[C@H](/C(C)=C/[C@@H]5CC[C@@H](O)[C@H](OC)C5)[C@H](C)[C@@H](O)CC3=O)[C@H](C)C[C@@H]4OC)nn1)c1nnc(C)n1-2 [CEM87, reference compound]","fold change, CXCR4 mRNA (CXCR4 gRNA vs NT gRNA)",[1]; 25 nM,21.5 fold
same,"fold change, CXCR4 mRNA (CXCR4 gRNA vs NT gRNA)",[1]; 50 nM,16.5 fold
same,"fold change, CXCR4 mRNA (CXCR4 gRNA vs NT gRNA)",[1]; 200 nM,19.0 fold
same,"fold change, CXCR4 mRNA (Treated vs Non-Treated)","[2]; FIG. 2C, 5 nM, 48 hrs",1.5 fold
same,"fold change, CXCR4 mRNA (CEM Treated vs Non-Treated)","[2]; FIG. 2D, CXCR4 gRNA, 1 nM, 48 hrs",1.16 fold
same,"fold change, CXCR4 mRNA (CEM Treated vs Non-Treated)","[2]; FIG. 2D, CXCR4 gRNA, 5 nM, 48 hrs",1.03 fold
same,"fold change, CXCR4 mRNA (CEM Treated vs Non-Treated)","[2]; FIG. 2D, CXCR4 gRNA, 25 nM, 48 hrs",1.19 fold
same,"fold change, CXCR4 mRNA (CEM Treated vs Non-Treated)","[2]; FIG. 2D, CXCR4 gRNA, 50 nM, 48 hrs",1.53 fold
same,"fold change, CXCR4 mRNA (CEM Treated vs Non-Treated)","[2]; FIG. 2D, NT gRNA, 1 nM, 48 hrs",0.85 fold
same,"fold change, CXCR4 mRNA (CEM Treated vs Non-Treated)","[2]; FIG. 2D, NT gRNA, 5 nM, 48 hrs",0.81 fold
same,"fold change, CXCR4 mRNA (CEM Treated vs Non-Treated)","[2]; FIG. 2D, NT gRNA, 25 nM, 48 hrs",0.91 fold
same,"fold change, CXCR4 mRNA (CEM Treated vs Non-Treated)","[2]; FIG. 2D, NT gRNA, 50 nM, 48 hrs",1.18 fold
same,activation of CXCR4 mRNA expression,"[2]; FIG. 2D, all concentrations tested (1-50 nM), 48 hours",no significant activation
same,concentration at which significant GFP activation was first achieved,"[3]; FIG. 1E, FKBP* system, TRE3G gRNA, 48 hours",50 nM
same,"fold change, GFP (Treated vs Non-Treated)","[3]; FIG. 1E, TRE3G gRNA, 0.25 nM, 48 hours",1.1 fold
same,"fold change, GFP (Treated vs Non-Treated)","[3]; FIG. 1E, TRE3G gRNA, 0.5 nM, 48 hours",1.1 fold
same,"fold change, GFP (Treated vs Non-Treated)","[3]; FIG. 1E, TRE3G gRNA, 0.75 nM, 48 hours",1.1 fold
same,"fold change, GFP (Treated vs Non-Treated)","[3]; FIG. 1E, TRE3G gRNA, 1 nM, 48 hours",1.1 fold
same,"fold change, GFP (Treated vs Non-Treated)","[3]; FIG. 1E, TRE3G gRNA, 2.5 nM, 48 hours",1.2 fold
same,"fold change, GFP (Treated vs Non-Treated)","[3]; FIG. 1E, TRE3G gRNA, 5 nM, 48 hours",1.1 fold
same,"fold change, GFP (Treated vs Non-Treated)","[3]; FIG. 1E, TRE3G gRNA, 7.5 nM, 48 hours",1.1 fold
same,"fold change, GFP (Treated vs Non-Treated)","[3]; FIG. 1E, TRE3G gRNA, 10 nM, 48 hours",1.2 fold
same,"fold change, GFP (Treated vs Non-Treated)","[3]; FIG. 1E, TRE3G gRNA, 25 nM, 48 hours",1.6 fold
same,"fold change, GFP (Treated vs Non-Treated)","[3]; FIG. 1E, TRE3G gRNA, 50 nM, 48 hours",5.2 fold
same,"fold change, GFP (Treated vs Non-Treated)","[3]; FIG. 1E, TRE3G gRNA, 75 nM, 48 hours",7.8 fold
same,"fold change, GFP (Treated vs Non-Treated)","[3]; FIG. 1E, TRE3G gRNA, 100 nM, 48 hours",9.7 fold
same,"fold change, GFP",[3]; 0.25 nM,1.1 fold
same,"fold change, GFP",[3]; 0.5 nM,1.1 fold
same,"fold change, GFP",[3]; 0.75 nM,1.0 fold
same,"fold change, GFP",[3]; 1 nM,1.0 fold
same,"fold change, GFP",[3]; 2.5 nM,1.1 fold
same,"fold change, GFP",[3]; 5 nM,1.0 fold
same,"fold change, GFP",[3]; 7.5 nM,1.0 fold
same,"fold change, GFP",[3]; 10 nM,1.0 fold
same,"fold change, GFP",[3]; 25 nM,1.0 fold
same,"fold change, GFP",[3]; 50 nM,1.0 fold
same,"fold change, GFP",[3]; 75 nM,1.0 fold
same,"fold change, GFP",[3]; 100 nM,1.0 fold
same,"fold change, GFP (Treated vs Non-Treated)","[4]; FIG. 5D, 10 nM",22.5 fold
same,"fold change, GFP (Treated vs Non-Treated)","[4]; FIG. 5D, 25 nM",23.1 fold
same,"fold change, GFP (Treated vs Non-Treated)","[4]; FIG. 5D, 50 nM",22.1 fold
same,"fold change, GFP (Treated vs Non-Treated)","[4]; FIG. 5D, 100 nM",22.0 fold
same,"fold change, GFP (Treated vs Non-Treated)","[4]; FIG. 5D, 200 nM",18.7 fold
same,"fold change, GFP (Treated vs Non-Treated)","[4]; FIG. 5D, 400 nM",18.3 fold
same,"fold change, GFP (Treated vs Non-Treated)","[4]; FIG. 5E, 10 nM",1.0 fold
same,"fold change, GFP (Treated vs Non-Treated)","[4]; FIG. 5E, 25 nM",1.1 fold
same,"fold change, GFP (Treated vs Non-Treated)","[4]; FIG. 5E, 50 nM",1.1 fold
same,"fold change, GFP (Treated vs Non-Treated)","[4]; FIG. 5E, 100 nM",1.2 fold
same,"fold change, GFP (Treated vs Non-Treated)","[4]; FIG. 5E, 200 nM",1.1 fold
same,"fold change, GFP (Treated vs Non-Treated)","[4]; FIG. 5E, 400 nM",1.2 fold
